Test results: patent US20230406843A1, “Progranulin Modulators and Methods of Using the Same” (ARKUDA THERAPEUTICS, priority 2020, published 2023)

System: progranulin
Experiment: Progranulin induction cellular assay (ELISA of secreted mouse PGRN)
Assay type: cell-based
Settings: progranulin induction assay; mouse pMG, primary cortical neurons and BV-2 cell lines named, cell type not given; ELISA-based readout; read-out: EC50
Experimental: Cellular Assays: Progranulin induction assay. To measure the efficacy of compounds, a progranulin induction cellular assay in mouse primary microglia (pMG), primary cortical neurons, and BV-2 cell lines is used. BV-2 cells are split the day before plating into a 96 well plate format at approximately 80%. Cells should be plated the day before and allowed for 1 hour attachment period and for 16 hour incubation. Levels of progranulin secreted into the cell culture medium or retained in the cell lysate can be quantified using an ELISA-based readout and measurement of secreted mouse PGRN in the medium was assessed by the methodology published by Ghidoni et al. 2012. Standard ELISA kits to measure PGRN are available from vendors such as Adipogen, R&D, and Biovendor.
Table B below presents the results of a progranulin induction assay as described above.

Structure (SMILES)	EC50 [µM]
N[C@@H]1C[C@@H](C(=O)N2CCc3ccccc3[C@@H]2c2ccc(F)cc2)OC[C@@H]1O [Compound 5054, ((2S,4R,5R)-4-amino-5-hydroxytetrahydro-2H-pyran-2-yl)((S)-1-(4-fluorophenyl)-3,4-dihydroisoquinolin-2(1H)-yl)methanone]	0.13
N[C@H]1C[C@H](C(=O)N2CCc3ccccc3[C@@H]2c2ccc(F)cc2)OC[C@@H]1O [Compound 5055, ((2R,4S,5R)-4-amino-5-hydroxytetrahydro-2H-pyran-2-yl)((S)-1-(4-fluorophenyl)-3,4-dihydroisoquinolin-2(1H)-yl)methanone]	0.056
N[C@H]1C[C@@H](C(=O)N2CCc3ccccc3[C@@H]2c2ccc(F)cc2)OC[C@H]1O [Compound 5058, ((2S,4S,5S)-4-amino-5-hydroxytetrahydro-2H-pyran-2-yl)((S)-1-(4-fluorophenyl)-3,4-dihydroisoquinolin-2(1H)-yl)methanone]	0.29
N[C@H]1CO[C@H](C(=O)N2CCc3ccccc3[C@@H]2c2ccc(F)cc2)CC1(F)F [Compound 5060, ((2S,5S)-5-amino-4,4-difluorotetrahydro-2H-pyran-2-yl)((S)-1-(4-fluorophenyl)-3,4-dihydroisoquinolin-2(1H)-yl)methanone]	5.85
CO[C@@H]1CO[C@@H](C(=O)N2CCc3ccccc3[C@@H]2c2ccc(F)cc2)C[C@@H]1N [Compound 5062, ((2R,4S,5S)-4-amino-5-methoxytetrahydro-2H-pyran-2-yl)((S)-1-(4-fluorophenyl)-3,4-dihydroisoquinolin-2(1H)-yl)methanone]	0.049
CCO[C@@H]1CO[C@@H](C(=O)N2CCc3ccccc3[C@@H]2c2ccc(F)cc2)C[C@@H]1N [Compound 5063, ((2R,4S,5S)-4-amino-5-ethoxytetrahydro-2H-pyran-2-yl)((S)-1-(4-fluorophenyl)-3,4-dihydroisoquinolin-2(1H)-yl)methanone]	0.035
N[C@@H]1C[C@@H](C(=O)N2CCc3ccccc3[C@@H]2c2ccc(F)cc2)OC[C@H]1O [Compound 5068, ((2S,4R,5S)-4-amino-5-hydroxytetrahydro-2H-pyran-2-yl)((S)-1-(4-fluorophenyl)-3,4-dihydroisoquinolin-2(1H)-yl)methanone]	0.376
N[C@H]1C[C@H](C(=O)N2CCc3ccccc3[C@@H]2c2ccc(F)cc2)OC[C@@H]1F [Compound 5069, ((2R,4S,5R)-4-amino-5-fluorotetrahydro-2H-pyran-2-yl)((S)-1-(4-fluorophenyl)-3,4-dihydroisoquinolin-2(1H)-yl)methanone]	0.142
CO[C@H]1CO[C@@H](C(=O)N2CCc3ccccc3[C@@H]2c2ccc(F)cc2)C[C@H]1N [Compound 5073, ((2R,4R,5R)-4-amino-5-methoxytetrahydro-2H-pyran-2-yl)((S)-1-(4-fluorophenyl)-3,4-dihydroisoquinolin-2(1H)-yl)methanone]	0.159
N[C@@H]1C[C@H](C(=O)N2CCc3ccccc3[C@@H]2c2ccc(F)cc2)OC[C@@H]1O [Compound 5074, ((2R,4R,5R)-4-amino-5-hydroxytetrahydro-2H-pyran-2-yl)((S)-1-(4-fluorophenyl)-3,4-dihydroisoquinolin-2(1H)-yl)methanone]	0.23
CO[C@H]1CO[C@@H](C(=O)N2CCc3ccccc3[C@@H]2c2ccc(F)cc2)C[C@@H]1N [Compound 5077, ((2R,4S,5R)-4-amino-5-methoxytetrahydro-2H-pyran-2-yl)((S)-1-(4-fluorophenyl)-3,4-dihydroisoquinolin-2(1H)-yl)methanone]	0.003
CCO[C@H]1CO[C@@H](C(=O)N2CCc3ccccc3[C@@H]2c2ccc(F)cc2)C[C@@H]1N [Compound 5078, ((2R,4S,5R)-4-amino-5-ethoxytetrahydro-2H-pyran-2-yl)((S)-1-(4-fluorophenyl)-3,4-dihydroisoquinolin-2(1H)-yl)methanone]	0.001
O=C1N[C@H]2C[C@H](C(=O)N3CCc4ccccc4[C@@H]3c3ccc(F)cc3)OC[C@H]2O1 [Compound 5079, (3aS,6R,7aS)-6-((S)-1-(4-fluorophenyl)-1,2,3,4-tetrahydroisoquinoline-2-carbonyl)hexahydro-2H-pyrano[4,3-d]oxazol-2-one]	> 10
N[C@H]1C[C@@H](C(=O)N2CCc3ccccc3[C@@H]2c2ccc(F)cc2)OC[C@@H]1O [Compound 5083, ((2S,4S,5R)-4-amino-5-hydroxytetrahydro-2H-pyran-2-yl)((S)-1-(4-fluorophenyl)-3,4-dihydroisoquinolin-2(1H)-yl)methanone]	0.084
CN(C)[C@@H]1CO[C@@H](C(=O)N2CCc3ccccc3[C@@H]2c2ccc(F)cc2)C[C@@H]1O [Compound 5085, ((2R,4S,5R)-5-(dimethylamino)-4-hydroxytetrahydro-2H-pyran-2-yl)((S)-1-(4-fluorophenyl)-3,4-dihydroisoquinolin-2(1H)-yl)methanone]	0.316

The next lines start with the values.

EC50 [µM]	Structure (SMILES)
0.018	N[C@@H]1CO[C@@H](C(=O)N2CCc3ccccc3[C@@H]2c2ccc(F)cc2)C[C@@H]1O [Compound 5052, ((2R,4S,5R)-5-amino-4-hydroxytetrahydro-2H-pyran-2-yl)((S)-1-(4-fluorophenyl)-3,4-dihydroisoquinolin-2(1H)-yl)methanone]
0.077	N[C@@H]1CO[C@H](C(=O)N2CCc3ccccc3[C@@H]2c2ccc(F)cc2)C[C@@H]1O [Compound 5053, ((2S,4S,5R)-5-amino-4-hydroxytetrahydro-2H-pyran-2-yl)((S)-1-(4-fluorophenyl)-3,4-dihydroisoquinolin-2(1H)-yl)methanone]
0.127	N[C@H]1CO[C@H](C(=O)N2CCc3ccccc3[C@@H]2c2ccc(F)cc2)C[C@@H]1O [Compound 5056, ((2S,4S,5S)-5-amino-4-hydroxytetrahydro-2H-pyran-2-yl)((S)-1-(4-fluorophenyl)-3,4-dihydroisoquinolin-2(1H)-yl)methanone]
0.133	N[C@@H]1CO[C@@H](C(=O)N2CCc3ccccc3[C@@H]2c2ccc(F)cc2)C[C@H]1O [Compound 5057, ((2R,4R,5R)-5-amino-4-hydroxytetrahydro-2H-pyran-2-yl)((S)-1-(4-fluorophenyl)-3,4-dihydroisoquinolin-2(1H)-yl)methanone]
0.344	N[C@H]1CO[C@H](C(=O)N2CCc3ccccc3[C@@H]2c2ccc(F)cc2)C[C@@H]1F [Compound 5059, ((2S,4S,5S)-5-amino-4-fluorotetrahydro-2H-pyran-2-yl)((S)-1-(4-fluorophenyl)-3,4-dihydroisoquinolin-2(1H)-yl)methanone]
0.478	N[C@@H]1CO[C@@H](C(=O)N2CCc3ccccc3[C@@H]2c2ccc(F)cc2)C[C@H]1F [Compound 5061, ((2R,4R,5R)-5-amino-4-fluorotetrahydro-2H-pyran-2-yl)((S)-1-(4-fluorophenyl)-3,4-dihydroisoquinolin-2(1H)-yl)methanone]
0.102	N[C@@H]1CO[C@@H](C(=O)N2CCc3ccccc3[C@@H]2c2ccc(F)cc2)C[C@@H]1F [Compound 5064, ((2R,4S,5R)-5-amino-4-fluorotetrahydro-2H-pyran-2-yl)((S)-1-(4-fluorophenyl)-3,4-dihydroisoquinolin-2(1H)-yl)methanone]
0.324	N[C@H]1CO[C@@H](C(=O)N2CCc3ccccc3[C@@H]2c2ccc(F)cc2)C[C@H]1O [Compound 5065, ((2R,4R,5S)-5-amino-4-hydroxytetrahydro-2H-pyran-2-yl)((S)-1-(4-fluorophenyl)-3,4-dihydroisoquinolin-2(1H)-yl)methanone]
0.153	N[C@H]1CO[C@@H](C(=O)N2CCc3ccccc3[C@@H]2c2ccc(F)cc2)C[C@@H]1O [Compound 5070, ((2R,4S,5S)-5-amino-4-hydroxytetrahydro-2H-pyran-2-yl)((S)-1-(4-fluorophenyl)-3,4-dihydroisoquinolin-2(1H)-yl)methanone]
0.081	N[C@@H]1CO[C@H](C(=O)N2CCc3ccccc3[C@@H]2c2ccc(F)cc2)C[C@H]1O [Compound 5072, ((2S,4R,5R)-5-amino-4-hydroxytetrahydro-2H-pyran-2-yl)((S)-1-(4-fluorophenyl)-3,4-dihydroisoquinolin-2(1H)-yl)methanone]
0.529	N[C@H]1CO[C@@H](C(=O)N2CCc3ccccc3[C@@H]2c2ccc(F)cc2)C[C@H]1F [Compound 5075, ((2R,4R,5S)-5-amino-4-fluorotetrahydro-2H-pyran-2-yl)((S)-1-(4-fluorophenyl)-3,4-dihydroisoquinolin-2(1H)-yl)methanone]
0.321	C[C@H]1C[C@@H](C(=O)N2CCc3ccccc3[C@@H]2c2ccc(F)cc2)OC[C@@H]1N [Compound 5076, ((2S,4S,5R)-5-amino-4-methyltetrahydro-2H-pyran-2-yl)((S)-1-(4-fluorophenyl)-3,4-dihydroisoquinolin-2(1H)-yl)methanone]
0.18	C[C@@H]1C[C@@H](C(=O)N2CCc3ccccc3[C@@H]2c2ccc(F)cc2)OC[C@@H]1N [Compound 5084, ((2S,4R,5R)-5-amino-4-methyltetrahydro-2H-pyran-2-yl)((S)-1-(4-fluorophenyl)-3,4-dihydroisoquinolin-2(1H)-yl)methanone]
0.194	N[C@H]1CO[C@H](C(=O)N2CCc3ccccc3[C@@H]2c2ccc(F)cc2)C[C@H]1F [Compound 5086, ((2S,4R,5S)-5-amino-4-fluorotetrahydro-2H-pyran-2-yl)((S)-1-(4-fluorophenyl)-3,4-dihydroisoquinolin-2(1H)-yl)methanone]
0.0421	N[C@H]1C[C@H](C(=O)N2CCc3ccccc3[C@@H]2c2ccc(F)cc2)OC[C@H]1F [Compound 5087, ((2R,4S,5S)-4-amino-5-fluorotetrahydro-2H-pyran-2-yl)((S)-1-(4-fluorophenyl)-3,4-dihydroisoquinolin-2(1H)-yl)methanone]
